No end group written: not given here.
Tests used:
Fibroblast Growth Factor = test: FGF production by Human Dermal Fibroblast cells, ELISA; format: cell-based; conditions: HDF cells, graded concentrations, 48 hrs, vs un-treated cells; values only in Fig. 2
Procedure: (§1) Evaluation of Transforming Growth factor beta (TGF-β) and Fibroblast Growth Factor (FGF): Human Dermal Fibroblast (HDF) cells were cultured in DMEM medium with 10% FBS and seeded in 96 well tissue culture plate for the test. […] After 48hrs the supernatant was collected from each well. The amount of TGF-β and FGF produced by the various treated HDF was quantified using ELISA method according to the kit protocol provided by the manufacturer (R&D Systems) and absorbance was measured at 450 nm using Fluostar Optima. Standard curve was generated by plotting absorbance values of standards against appropriate TGF-β/ FGF concentrations. TGF-β/ FGF concentrations of the control and test samples were calculated from the standard graph equation. Percentage increase of expression in test samples was calculated with respect to un-treated cells. The results of the experiment are exemplified in Figs. 1 and 2 respectively. The importance of TGF- β1 in the synthesis of extracellular matrix in well established in • 1. Yang T et al, "miR-29 mediates TGFβ1-induced extracellular matrix synthesis through activation of PI3K-AKT pathway in human lung fibroblasts", J Cell Biochem. 2013 Jun;114(6):1336-42; • 2. Tan J et al, "MicroRNA-29 mediates TGFβ1-induced extracellular matrix synthesis by targeting wnt/β-catenin pathway in human orbital fibroblasts." Int J Clin Exp Pathol. 2014 Oct 15;7(11):7571-7; • 3. […]

KRT4 = conditions: gene KRT4 (keratin 4); EFT-400 culture, 100 µL applied, 24 hours
Procedure: (§2) The objective of the study was to understand how application of test composition containing peptide of SEQ ID No. 1 linked to oleanolic acid represented by STR#1 influences gene expression in the skin. The current study was conducted using a full-thickness in vitro skin culture model (EFT-400, MatTek). One hundred microliters of Test Material was applied to the surface of each test culture and incubated for a period of 24 hours.
(§3) Treatment and Maintenance of cultures: 100 µL of test composition containing peptide of SEQ ID No. 1 linked to oleanolic acid represented by STR#1 was applied to the center of each EFT-400 culture. A sterile glass spreader was used to distribute the Test Material. Each culture was visually inspected to ensure even distribution. Following application, the cultures were returned to the incubator at 37°C with 5% CO2 for 24 hours. After 24 hours, the Test Materials were washed from the surface of each culture with sterile PBS. Following removal of test material, each culture was cut into quarters and placed into RNA solution.
(§4) RNA Isolation: RNA was isolated from tissues using a Maxwell 16 LEV RNA Tissue kit following the manufacturer's instructions (Promega) and vacuum concentrated until >200ng/uL as required for OpenArray processing. RNA concentration and purity were determined using a Nanodrop 2000 spectrophotometer. cDNA synthesis: cDNA was generated using a High Capacity cDNA Synthesis Kit according to the manufacturer's instructions for OpenArray processing (Life Technologies).
(§5) qPCR Processing: qPCR reactions were run using validated Taqman gene expression assays in an OpenArray format. OpenArrays were run in a Life Technologies QuantStudio 12K Flex instrument.
(§6) Data Analysis: qPCR data was imported into RealTime StatMiner software v4.2 for statistical analysis using the relative quantitation (RQ) method. In the first step of an RQ analysis, the CT value of the target gene is normalized to the CT value of an endogenous control gene for each sample to generate the delta CT (dCT).

CDSN = conditions: gene CDSN (corneodesmosin); EFT-400 culture, 100 µL applied, 24 hours
Procedure: as §2, §3, §4, §5, §6

TP63 = conditions: gene TP63 (tumor protein p63); EFT-400 culture, 100 µL applied, 24 hours
Procedure: as §2, §3, §4, §5, §6

BMP2 = conditions: gene BMP2 (bone morphogenetic protein 2); EFT-400 culture, 100 µL applied, 24 hours
Procedure: as §2, §3, §4, §5, §6

TNF = conditions: gene TNF (tumor necrosis factor (TNFsuperfamily,member)); EFT-400 culture, 100 µL applied, 24 hours
Procedure: as §2, §3, §4, §5, §6

PTGS2 = conditions: gene PTGS2 (Prostaglandin endoperoxide synthase 2/ COX2); EFT-400 culture, 100 µL applied, 24 hours
Procedure: as §2, §3, §4, §5, §6

CALML5 = conditions: gene CALML5 (calmodulin-like 5); EFT-400 culture, 100 µL applied, 24 hours
Procedure: as §2, §3, §4, §5, §6

AQP5 = conditions: gene AQP5 (aquaporin 5); EFT-400 culture, 100 µL applied, 24 hours
Procedure: as §2, §3, §4, §5, §6

PPARD = conditions: gene PPARD (peroxisome proliferator-activated receptor); EFT-400 culture, 100 µL applied, 24 hours
Procedure: as §2, §3, §4, §5, §6

KLK5 = conditions: gene KLK5 (kallikrein-related peptidase 5); EFT-400 culture, 100 µL applied, 24 hours
Procedure: as §2, §3, §4, §5, §6

LOR = conditions: gene LOR (loricrin); EFT-400 culture, 100 µL applied, 24 hours
Procedure: as §2, §3, §4, §5, §6

IL8 = conditions: gene IL8 (interleukin 8); EFT-400 culture, 100 µL applied, 24 hours
Procedure: as §2, §3, §4, §5, §6

FLG = conditions: gene FLG (filaggrin); EFT-400 culture, 100 µL applied, 24 hours
Procedure: as §2, §3, §4, §5, §6

LCE3D = conditions: gene LCE3D (late cornified envelope 3D); EFT-400 culture, 100 µL applied, 24 hours
Procedure: as §2, §3, §4, §5, §6

MKI67 = conditions: gene MKI67 (antigen identified by Ki-67 antibody); EFT-400 culture, 100 µL applied, 24 hours
Procedure: as §2, §3, §4, §5, §6

ITGB4 = conditions: gene ITGB4 (integrin, beta 4); EFT-400 culture, 100 µL applied, 24 hours
Procedure: as §2, §3, §4, §5, §6

ILIA = conditions: gene ILIA (interleukin 1, alpha); EFT-400 culture, 100 µL applied, 24 hours
Procedure: as §2, §3, §4, §5, §6

KRT10 = conditions: gene KRT10 (keratin 10); EFT-400 culture, 100 µL applied, 24 hours
Procedure: as §2, §3, §4, §5, §6

HSP-47 = conditions: EFT-400 culture, 100 µL applied, 24 hours; values only in Fig. 5
Procedure: as §2, §3, §4, §5, §6

DSG3 = conditions: gene DSG3 (desmoglein 3); EFT-400 culture, 100 µL applied, 24 hours
Procedure: as §2, §3, §4, §5, §6

TGFB1 = conditions: gene TGFB1 (transforming growth factor, beta 1); EFT-400 culture, 100 µL applied, 24 hours
Procedure: as §2, §3, §4, §5, §6

CLDN7 = conditions: gene CLDN7 (claudin 7); EFT-400 culture, 100 µL applied, 24 hours
Procedure: as §2, §3, §4, §5, §6

[1] = test system: Transforming Growth Factor-β (TGF- β); test: TGF-β production by Human Dermal Fibroblast cells, ELISA; format: cell-based; conditions: HDF cells, graded concentrations, 48 hrs, vs un-treated cells; values only in Fig. 1
Procedure: as §1

HSP-90 = test: Gene expression analysis, full-thickness in vitro skin culture model (EFT-400), qPCR; format: cell-based, human; conditions: EFT-400 culture, 100 µL applied, 24 hours; values only in Fig. 3
Description: (§7) Each culture was visually inspected to ensure even distribution.

TIMP = test: as above; format: cell-based, human; conditions: EFT-400 culture, 100 µL applied, 24 hours; values only in Fig. 6
Description: as §7

LOX = test: as above; format: cell-based, human; conditions: EFT-400 culture, 100 µL applied, 24 hours; values only in Fig. 4
Description: as §7

test composition containing peptide of SEQ ID No. 1: peptide of SEQ ID No. 1 linked to oleanolic acid represented by STR#1; pentapeptide conjugate of oleanolic acid (KTTKS; also: linked to oleanolic acid, place not given here)
fibroblast growth factor expression in human dermal fibroblasts (Fibroblast Growth Factor): increase | Fold Decrease (KRT4): -2.11 Fold | Fold Increase (CDSN): 1.78 Fold | Fold Increase (TP63): 1.56 Fold | Fold Increase (BMP2): 1.80 Fold | Fold Decrease (TNF): -4.34 Fold | Fold Decrease (PTGS2): -1.80 Fold | Fold Increase (CALML5): 1.91 Fold | Fold Increase (AQP5): 1.97 Fold | Fold Increase (PPARD): 1.59 Fold | Fold Increase (KLK5): 2.44 Fold | Fold Increase (LOR): 1.63 Fold | Fold Decrease (IL8): -1.68 Fold | Fold Increase (FLG): 2.23 Fold | Fold Increase (LCE3D): 1.61 Fold | Fold Increase (MKI67): 1.83 Fold | Fold Increase (ITGB4): 1.76 Fold | Fold Decrease (ILIA): -1.77 Fold | Fold Decrease (KRT10): -1.71 Fold | skin expression of HSP-47 gene (HSP-47): Up-regulation | Fold Increase (DSG3): 2.19 Fold | Fold Increase (TGFB1): 1.72 Fold | Fold Increase (CLDN7): 1.69 Fold | TGF- β expression in human dermal fibroblasts [1]: increase | skin expression of HSP-90 gene (HSP-90): Up-regulation | skin expression of TIMP gene (TIMP): Up-regulation | skin expression of LOX gene (LOX): Up-regulation

— patent EP3253400B1, “OLEANOYL PEPTIDE COMPOSITION” (Majeed, Muhammed, priority 2015, dated 2023)
